Nine compounds from US12139508B2, “Steroid derivative regulators, method for preparing the same, and uses thereof” (JIANGSU HANSOH PHARMACEUTICAL GROUP CO., LTD., priority 2018, dated 2024) can be followed below.

In one test the target is GABA-A receptor. The experiment in a line: 35S-TBPS binding assay (GABAA receptor binding ability test). More on the design: species or system Sprague-Dawley rat. As to conditions: rat cerebral cortex cell membrane, 5 μM GABA, 2 nM 35S-TBPS; read-out: 35S-TBPS bindng test: IC50 on inhibiting the TBPS binding activity. An outline of the steps: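 Rat (male Sprague-Dawley) cortical membranes in PBS were preincubated 5 min at 25° C with compound (from 1 μM, 3-fold, 8 points, 1% DMSO), then 5 μM GABA 5 min, then 2 nM ^35S-TBPS for 20 h at 4° C. Filter-bound counts gave % inhibition against DMSO and 10 μM P026-2 controls; IC50 by 4-parameter fit.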

Test [1] has as its system PTZ-induced epilepsy model in CD-1 mice. The experiment in a line: In vivo pharmacodynamic test in the PTZ-induced epilepsy model in mice. Conditions: dose 3 mpk p.o., PTZ 120 mg/kg s.c., 30 min observation. On the procedure:
The PTZ-induced epilepsy model in CD-1 mice was established, and the antiepileptic effect of the compounds of Example 3, Example 60, Example 61 and Example 74 was evaluated using this model.
50 male CD-1 mice were purchased from Beijing Vital River Laboratory Animal Technology Co. Ltd. The test animals were adapted at the animal room in the third building of Shanghai ChemPartner Co., Ltd for 7 days before the test. The average body weight of the animals on the test day was 32.2±0.2 grams. Feeding environment: 5 animals/cage, room temperature 23±2° C., 12/12 hours of light and dark cycle, free acess to food and water.
4.2.1 Test Equipments • 1 ml sterile disposable syringe with needle (purchased from Zhejiang Kangdelai Medical Devices Co., Ltd.) • Pipette: Eppendorf Research Plus (100-1000 L) • Vortex mixer: Kylin-Bell Vortex 5 • Ultrasonic instrument: JL-360 ultrasonic cleaner • Balance: METTLER TOLEDO™ XS204 precision balance (note: METTLER TOLEDO™ is a kind of balance used in labs and industry) • Balance: METTLER TOLEDO™ XS6002S electronic balance (note: METTLER TOLEDO™ is a kind of balance used in labs and industry) • Plexiglass box: 25 cm length*15 cm width*15 cm height with one opaque side wall, custom made by Suzhou Fengshi Laboratory Animal Equipment Co., Ltd • 3-channel timer: Oregon/Model NO.WB-388. 4.2.2 Test Animal Grouping • 1) Vehicle/PTZ: 0.5% CMC-Na+1% Tween-80 (10 ml/kg, p.o.), administered 0.5 hr before the PTZ administration; PTZ ([…], s.c.), administered before the test; • 2) 3 mg/kg of the compounds of Examples/PTZ: the compounds of Example 3, Example 60, Example 61 and Example 74 (3 mg/kg, 10 ml/kg, p.o.), administered 0.5 hr before the PTZ administration; PTZ ([…], s.c.), administered before the test. 4.3 Experimental Procedures 4.3.1 Solvent Formulation 1) 0.5% CMC-Na+1% Tween-80 (Administration Volume: 10 mL/Kg):
4.4 Adaptation to the Environment
The mice were randomly grouped, marked and weighed; 10 mice per group. The test compound was administered orally at an administration volume of 10 mL/kg 30-60 minutes before the PTZ administration.
PTZ (120 mg/kg) was administrated subcutaneously before the test observation, and this time point was recorded as the observation start point; after the administration of PTZ, the animal was immediately placed in the observation box and observed for 30 minutes, and the followings were recorded: a) the incubation period of the first clonic seizure, b) the incubation period of the first generalized tonic seizure, c) the number of clonic seizures, d) the number of generalized tonic seizures, e) the time when the animal died.
All measurement data were expressed as Mean±SEM, and analysed with Prism 6.0 statistical software.

Take `C[C@@]1(O)CC[C@H]2[C@H](CC[C@@H]3[C@@H]2CC[C@@]2(C)[C@H]3[C@@H]3C[C@@H]3[C@@H]2C(=O)Cn2cc(C#N)cn2)C1` [Example 2, 1-(2-((2R,4aS,4bR,6aS,7S,7aS,8aR,8bR,8cR,10aR)-2-hydroxy-2,6a-dimethyloctadecahydrocyclopropa[4,5]cyclopenta[1,2-a]phenanthren-7-yl)-2-oxoethyl)-1H-pyrazole-4-carbonitrile]: at GABA-A receptor, the IC50 came to 24.3 nM.

`C[C@@]1(O)CC[C@H]2[C@H](CC[C@@H]3[C@@H]2CC[C@@]2(C)[C@H]3[C@@H]3C[C@@H]3[C@@H]2C(=O)Cn2ccc(C#N)n2)C1` [Example 3, 1-(2-((2R,4aS,4bR,6aS,7S,7aS,8aR,8bR,8cR,10aR)-2-hydroxy-2,6a-dimethyloctadecahydrocyclopropa[4,5]cyclopenta[1,2-a]phenanthren-7-yl)-2-oxoethyl)-1H-pyrazole-3-carbonitrile]: the IC50 on GABA-A receptor worked out at 14.9 nM. For the same compound, in test [1], the “Incubation period of the clonic seizure, Mean ± SEM” value amounted to 902.9 ± 200.8 s; the “Incubation period of the generalized tonic seizure, Mean” value stood at 1736.0 ± 63.2 s; the Mortality rate is reported as 10%; the “Number of clonic seizures, Mean” value is given as 1.3 ± 0.3. Moreover, in test [1], the “Number of generalized tonic seizures, Mean” value amounted to 0.1 ± 0.1 and the “Time when the animal died, Mean” value is 1739.8 ± 60.2 s.

For the compound `C[C@@]1(O)CC[C@H]2[C@H](CC[C@@H]3[C@@H]2CC[C@@]2(C)[C@H]3[C@@H]3C[C@@H]3[C@@H]2C(=O)Cn2cc(C(F)(F)F)cn2)C1` [Example 5, 1-((2R,4aS,4bR,6aS,7S,7aS,8aR,8bR,8cR,10aR)-2-Hydroxy-2,6a-dimethyloctadecahydrocyclopropa[4,5]cyclopenta[1,2-a]phenanthren-7-yl)-2-(4-(trifluoromethyl)-1H-pyrazol-1-yl)ethan-1-one], the half-inhibitory concentration (IC50) at GABA-A receptor is 13.5 nM.

On to `C[C@@H]1C[C@H](C(=O)Cn2cc(C#N)cn2)[C@@]2(C)CC[C@H]3[C@@H](CC[C@@H]4C[C@](C)(O)CC[C@@H]43)[C@H]12` [Example 13, 1-(2-((3R,5R,8R,9R,10S,13S,14S,15R)-3-Hydroxy-3,13,15-trimethylhexadecahydro-1H-cyclopenta[a]phenanthren-17-yl)-2-oxoethyl)-1H-pyrazole-4-carbonitrile], for which, at GABA-A receptor, the IC50 is 4.6 nM.

For the compound `C[C@@H]1C[C@H](C(=O)Cn2ccc(C#N)n2)[C@@]2(C)CC[C@H]3[C@@H](CC[C@@H]4C[C@](C)(O)CC[C@@H]43)[C@H]12` [Example 60, 1-(2-((3R,5R,8R,9R,10S,13S,14S,15R,17S)-3-Hydroxy-3,13,15-trimethylhexadecahydro-1H-cyclopenta[a]phenanthren-17-yl)-2-oxoethyl)-1H-pyrazole-3-carbonitrile], the IC50 on GABA-A receptor is 8.2 nM. In test [1], the “Incubation period of the clonic seizure, Mean ± SEM” value worked out at 1308.1 ± 170.1 s; the “Incubation period of the generalized tonic seizure, Mean” value was determined as 1800.0 ± 0.0 s; the Mortality rate came out at 0%; the “Number of clonic seizures, Mean” value is 0.5 ± 0.2. Besides, in test [1], the “Number of generalized tonic seizures, Mean” value is reported as 0.0 ± 0.0 and the “Time when the animal died, Mean” value came out at 1800.0 ± 0.0 s.

Consider `C[C@@]1(O)CC[C@H]2[C@H](CC[C@@H]3[C@@H]2CC[C@]2(C)C(C(=O)Cn4cc(C#N)cn4)C[C@@H](C4CC4)[C@@H]32)C1` (stereo partly drawn) [Example 71, 1-(2-((3R,5R,8R,9R,10S,13S,14S,15S)-15-Cyclopropyl-3-hydroxy-3,13-dimethylhexadecahydro-1H-cyclopenta[a]phenanthren-17-yl)-2-oxoethyl)-1H-pyrazole-4-carbonitrile], for which the IC50 at GABA-A receptor turned out to be 7.5 nM.

Consider `CC[C@@H]1C[C@H](C(=O)Cn2ccc(C#N)n2)[C@@]2(C)CC[C@H]3[C@@H](CC[C@@H]4C[C@](C)(O)CC[C@@H]43)[C@H]12` [Example 137, 1-(2-((3R,5R,8R,9R,10S,13S,14S,15R,17S)-15-Ethyl-3-hydroxy-3,13-dimethylhexadecahydro-1H-cyclopenta[a]phenanthren-17-yl)-2-oxoethyl)-1H-pyrazole-3-carbonitrile], for which the half-inhibitory concentration (IC50) at GABA-A receptor came to 16.2 nM.

Consider `C[C@@]1(O)CC[C@H]2[C@H](CC[C@@H]3[C@@H]2CC[C@@]2(C)[C@H]3[C@H](C3CC3)C[C@@H]2C(=O)Cn2ccnn2)C1` [Example 145, 1-((3R,5R,8R,9R,10S,13S,14S,15S,17S)-15-Cyclopropyl-3-hydroxy-3,13-dimethylhexadecahydro-1H-cyclopenta[a]phenanthren-17-yl)-2-(1H-1,2,3-triazol-1-yl)ethan-1-one], for which, on GABA-A receptor, the IC50 came to 16.9 nM.

Consider `C[C@@]1(O)CC[C@H]2[C@H](CC[C@@H]3[C@@H]2CC[C@@]2(C)[C@H]3[C@H](C3CC3)C[C@@H]2C(=O)Cn2ncnn2)C1` [Example 146, 1-((3R,5R,8R,9R,10S,13S,14S,15S,17S)-15-Cyclopropyl-3-hydroxy-3,13-dimethylhexadecahydro-1H-cyclopenta[a]phenanthren-17-yl)-2-(2H-tetrazol-2-yl)ethan-1-one], for which the 50% inhibitory concentration (IC50) on GABA-A receptor turned out to be 21.4 nM.

As a reminder, the IC50 is the midpoint of a concentration-inhibition curve.
